Patent US8288087B2, “Use of melanoma inhibitory activity (MIA) protein as an early indicator for therapeutic response in melanoma” (Novartis AG, priority 2006, dated 2012)
“Also recorded” adds a separate entry of the source.

Assays:
Format in all cases: in vivo, mouse
[1] = test system: CHL-1 human melanoma xenograft; assay: CHL-1 human melanoma xenograft study, tumor volume and plasma MIA ELISA (Example 4)
Protocol: (§1) MIA ELISA Assay: Equal numbers of human melanoma and colorectal carcinoma cells (˜250,000 cells for each cell line) were seeded onto tissue culture plates and the culture medium for each cell line was collected 48 hr later. Levels of MIA in culture media or plasma were measured by a commercial single-step ELISA kit according to the manufacturer's protocol (Roche Diagnostics Corporation, Indianapolis, Ind.). MIA concentrations in test samples were calculated using a standard curve ranging from 3-37 ng/ml. When the MIA concentration exceeded the highest standard concentration, the samples were diluted 1:5 and assayed again to have the results fall within the linear range of the standard curve. Data were evaluated using the Student t-test (two-tailed distribution, two-sample unequal variance), using P≦0.05 as the level of significance.
A CHL-1 human melanoma xenograft study was carried out with female athymic nu/nu mice (8-12 weeks old) purchased from Charles River Laboratories (Wilmington, Mass.). Approximately 5×10^6 tumor cells in Matrigel™ were implanted subcutaneously (s.c.) into the hind flank region of mice. Dosing began when tumors reached an average size of 200 mm^3. Caliper measurements were performed twice weekly to estimate tumor volume using the formula: (a×b^2)×0.5, where “a” is the largest diameter and “b” is the length perpendicular to the diameter. […]

[2] = test system: A375M human melanoma xenograft; assay: Kinetics of plasma MIA and tumor volume in A375M tumor-bearing mice (Example 3)
Protocol: as §1
(§2) An A375 human melanoma xenograft study was carried out with female athymic nu/nu mice (8-12 weeks old) purchased from Charles River Laboratories (Wilmington, Mass.). Approximately 2.5×10^6 cells were implanted subcutaneously (s.c.) into the hind flank region of mice. Plasma samples were collected when tumors reached an average size of 250 mm^3 (n=10) and stored at −80° C. prior to MIA analysis. Dosing typically began when tumors reached an average size of 250 mm^3. Caliper measurements were performed twice weekly to estimate tumor volume using the formula: (a×b^2)×0.5, where “a” is the largest diameter and “b” is the length perpendicular to the diameter.
Methods: The kinetics of MIA concentrations in plasma following drug treatment were investigated as follows. A375M tumor-bearing mice were dosed orally either with CHIR-265 (100 mg/kg), CHIR-258 (60 mg/kg) or vehicle (n=10/group). Plasma samples were collected before dosing was initiated, and again on day 3, 8 and 13. Tumor volumes were measured at the same time points, using methods described in EXAMPLE 2.

[3] = test system: MEXF 276 human melanoma tumor explant xenograft; assay: MEXF 276 human melanoma tumor explant xenograft study, tumor volume and plasma MIA ELISA; conditions: for Tumor Volume: day 20, mean ± SE; for tumor growth inhibition: day 20
Protocol: as §1
(§3) An MEXF 276 human melanoma tumor explant xenograft study and an MEXF1341 human melanoma tumor explant xenograft study were carried out as follows. The MEXF 276 human melanoma tumor cells and the MEXF1341 human melanoma tumor explant cells were originally derived from surgical specimens isolated from different melanoma patients (obtained from Oncotest GmbH, Institute for Experimental Oncology, Frieburg, Germany) and propagated as xenografts in nude mice. After removal of tumors from donor mice, samples were cut into fragments (1-2 mm diameter) and placed in RPMI 1640 medium before subcutaneous implantation into recipient male NMRI nu/nu mice (6-8 weeks old). Dosing typically began when tumors reached an average size of 6-8 mm in diameter. Animals were maintained under clean-room conditions in sterile filter-top cages and received sterile rodent chow and water ad libitum.
In a second experiment, MEXF 276 human melanoma tumor-bearing mice were randomized and dosed orally with CHIR-265 (100 or 10 mg/kg) or sorafenib (100 mg/kg) n=4/group. The first day of dosing was designated as Day 0. As such, the dosing schedule for CHIR-265 was 10 mg/kg on Day 0, 2, 4, 6, 14, 16 and 20. For CHIR-265 the dosing schedule was 100 mg/kg on Day 0, 2, 14, 16 and 20. Finally, the dosing schedule for sorafenib and PEG400 vehicle was 100 mg/kg every day on Day 0-20. […] Plasma samples were collected 4 hr after the last dose on Day 20 and stored at −80° C. prior to MIA analysis. MIA plasma levels were determined by an ELISA assay carried out as described in EXAMPLE 1.

[4] = test system: MEXF 1341 human melanoma tumor explant xenograft; assay: MEXF 1341 human melanoma tumor explant xenograft study, tumor volume and plasma MIA ELISA; conditions: for tumor growth inhibition, significance vs. vehicle: MEXF 1341 (text prints MEXF 276), P>0.08 v. vehicle; for tumor growth inhibition, significance vs. vehicle / Tumor Volume: day 20; for Tumor Volume: mean ± SE
Protocol: as §1, §3
In a third experiment, MEXF 1341 human melanoma tumor-bearing mice were randomized and dosed orally with CHIR-265 (100 or 10 mg/kg) or sorafenib (100 mg/kg) n=4/group. The first day of dosing was designated as Day 0. As such, the dosing schedule for CHIR-265 (10 mg/kg) was 10 mg/kg on Day 0, 2, 4, 6, 14, 16 and 20. For CHIR-265 (100 mg/kg) the dosing schedule was 100 mg/kg on Day 0, 2, 14, 16 and 20. Finally, the dosing schedule for sorafenib and PEG400 vehicle was 100 mg/kg every day on Day 0-20. […] Plasma samples were collected 4 hr after the last dose on Day 20 and stored at −80° C. prior to MIA analysis. MIA plasma levels were determined by an ELISA assay carried out as described in EXAMPLE 1.

[5] = test system: A375M human melanoma xenograft; assay: A375M human melanoma xenograft study, tumor volume and plasma MIA ELISA (Example 2)
Protocol: as §1, §2
In a first experiment, A375M human melanoma tumor-bearing mice (n=5) were randomized and dosed orally with CHIR-265 at 100 mg/kg (n=5) or vehicle (n=5) once every other day. Tumor-bearing animals treated with PEG400 buffer alone were used as vehicle control. […] Plasma samples were collected 48 hours post the fourth dose (day 10) for MIA analysis by ELISA.

## CN1CCN(c2ccc3[nH]c(-c4c(N)c5c(F)cccc5[nH]c4=O)nc3c2)CC1 [CHIR-258, 4-amino-5-fluoro-3-[5-(4-methylpiperazin-1-yl)-1H-benzimidazol-2-yl]quinolin-2(1H)-one]
[1]; CHIR-258 30 mg/kg or 80 mg/kg oral once daily, by day 8, P<0.03
  effect on tumor volume vs. vehicle: significant tumor growth inhibition
[1]; both CHIR-258 groups (30 and 80 mg/kg), day 8 and subsequent time points
  plasma MIA levels: not detectable
[2]; CHIR-258 60 mg/kg oral, day 3, 60 mg/kg
  change in MIA plasma concentration vs. vehicle: statistically significant lower levels; also recorded: statistically significant decrease in MIA plasma concentration
[2]; CHIR-258 60 mg/kg oral, day 13
  reduction in MIA levels compared to baseline: 63%
[2]; CHIR-258 60 mg/kg oral, from day 8, 60 mg/kg
  effect on tumor volume / tumor burden vs. vehicle: tumor growth inhibition, however regressions were not observed; also recorded: tumor growth inhibition; also recorded: statistically significant reduction in tumor burden

## Cn1c(Nc2ccc(C(F)(F)F)cc2)nc2cc(Oc3ccnc(-c4ncc(C(F)(F)F)[nH]4)c3)ccc21 [CHIR-265, {1-Methyl-5-[2-(5-trifluoromethyl-1H-imidazol-2-yl)-pyridin-4-yloxy]-1H-benzoimidazol-2-yl}-(4-trifluoromethyl-phenyl)-amine]
[3]; CHIR-265 100 mg/kg oral, 100 mg/kg
  Tumor Volume: 19±2.9 mm^3
[3]; CHIR-265 (10 mg/ml) per table head, 10 mg/kg in text, oral, 10 mg/kg
  Tumor Volume: 58±15.2 mm^3
[3]; CHIR-265 at both doses (100 and 10 mg/kg)
  tumor growth inhibition: > 97%
[4]
  tumor growth inhibition, significance vs. vehicle: did not cause significant tumor growth inhibition
[4]; MEXF 1341, CHIR-265 100 mg/kg oral, 100 mg/kg
  Tumor Volume: 575±214 mm^3
[4]; MEXF 1341, CHIR-265 (10 mg/ml) per table head, 10 mg/kg in text, oral, 10 mg/kg
  Tumor Volume: 1190±291 mm^3
[4]; MEXF 1341, both CHIR-265 treatments (100 and 10 mg/kg), Day 20, P<0.02
  reduction in plasma MIA: 2 fold
[2]; CHIR-265 100 mg/kg oral, day 3, baseline 27.8
  MIA plasma concentration (median): 10.4 ng/mL
[2]; CHIR-265 100 mg/kg, day 3
  reduction in MIA concentration vs. baseline: 62%
  tumor regression: 29%
[2]; CHIR-265 100 mg/kg, day 13
  MIA plasma concentration: undetectable
[5]; CHIR-265 100 mg/kg oral every other day, after four doses
  tumor regression as compared to initial tumor volume (250 mm^3): ~50%
[5]; CHIR-265 100 mg/kg oral every other day, day 10
  tumor growth inhibition compared to vehicle treatment: 70%
[5]; CHIR-265 100 mg/kg oral every other day, day 10, mean ± SE, 100 mg/kg
  Tumor Volume: 133±14.1 mm^3
[5]; CHIR-265 100 mg/kg, day 10, n=5/group
  vehicle median MIA concentration fold higher than CHIR-265 treated mice: 17 fold
[5]; after four doses of CHIR-265 100 mg/kg, plasma 48 h post fourth dose (day 10)
  MIA plasma levels: ~4 ng/mL

## CNC(=O)c1cc(Oc2ccc(NC(=O)Nc3ccc(Cl)c(C(F)(F)F)c3)cc2)ccn1 [Sorafenib, reference compound]
[3]; sorafenib 100 mg/kg every day
  tumor growth inhibition: 69%
[3]; sorafenib 100 mg/kg oral every day
  Tumor Volume: 887±196 mm^3
[3]; sorafenib 100 mg/kg, plasma 4 hr after last dose on Day 20
  median plasma MIA concentration: 28.9 ng/mL
[4]
  tumor growth inhibition, significance vs. vehicle: did not cause significant tumor growth inhibition
[4]; MEXF 1341, sorafenib 100 mg/kg oral every day
  Tumor Volume: 1338±264 mm^3
[4]; MEXF 1341, sorafenib 100 mg/kg, Day 20, P>0.17
  effect on plasma MIA levels: reduced plasma MIA levels
